According to paper PMC6978363, “Chaperone mediated detection of small molecule target binding in cells” (Nature Communications, 2020):

How the values were obtained:
Assay in all cases: biochemical
[1] = biological target: EphB4 (Homo sapiens, UniProt P54760); conditions: read-out: % Inhibition (at 10mM)
[2] = biological target: AKT2 (Homo sapiens, UniProt P31751); conditions: read-out: % Inhibition (at 10mM)
[3] = biological target: T1, RSK3 (Homo sapiens, UniProt Q15349); conditions: read-out: % Inhibition (at 10mM)
T1 construct: gene RPS6KA2

[4] = biological target: T2, CamKIV (Homo sapiens, UniProt Q16566); conditions: read-out: % Inhibition (at 10mM)
T2 construct: gene CAMK4

[5] = biological target: Lyn (Homo sapiens, UniProt P07948); conditions: read-out: % Inhibition (at 10mM)
[6] = biological target: T3, p38_gamma (Homo sapiens, UniProt P53778); conditions: read-out: % Inhibition (at 10mM)
T3 construct: gene MAPK12

[7] = biological target: T4, PRKAA2_B2_G3 (Homo sapiens, UniProt P54646); conditions: read-out: % Inhibition (at 10mM)
T4 construct: gene PRKAA2

[8] = biological target: T5, CamK1_gamma (Homo sapiens, UniProt Q96NX5); conditions: read-out: % Inhibition (at 10mM)
T5 construct: gene CAMK1G

[9] = biological target: T6, MSSK1 (Homo sapiens, UniProt Q9UPE1); conditions: read-out: % Inhibition (at 10mM)
T6 construct: gene SRPK3

[10] = biological target: T7, YSK1 (Homo sapiens, UniProt O00506); conditions: read-out: % Inhibition (at 10mM)
T7 construct: gene STK25

[11] = biological target: EphA2 (Homo sapiens, UniProt P29317); conditions: read-out: % Inhibition (at 10mM)
[12] = biological target: T8, PKC_beta2 (Homo sapiens, UniProt P05771); conditions: read-out: % Inhibition (at 10mM)
T8 construct: gene PRKCB; isoform beta 2

[13] = biological target: T9, PAK7 (Homo sapiens, UniProt Q9P286); conditions: read-out: % Inhibition (at 10mM)
T9 construct: gene PAK5
T9 sequence (Q9P286 whole entry): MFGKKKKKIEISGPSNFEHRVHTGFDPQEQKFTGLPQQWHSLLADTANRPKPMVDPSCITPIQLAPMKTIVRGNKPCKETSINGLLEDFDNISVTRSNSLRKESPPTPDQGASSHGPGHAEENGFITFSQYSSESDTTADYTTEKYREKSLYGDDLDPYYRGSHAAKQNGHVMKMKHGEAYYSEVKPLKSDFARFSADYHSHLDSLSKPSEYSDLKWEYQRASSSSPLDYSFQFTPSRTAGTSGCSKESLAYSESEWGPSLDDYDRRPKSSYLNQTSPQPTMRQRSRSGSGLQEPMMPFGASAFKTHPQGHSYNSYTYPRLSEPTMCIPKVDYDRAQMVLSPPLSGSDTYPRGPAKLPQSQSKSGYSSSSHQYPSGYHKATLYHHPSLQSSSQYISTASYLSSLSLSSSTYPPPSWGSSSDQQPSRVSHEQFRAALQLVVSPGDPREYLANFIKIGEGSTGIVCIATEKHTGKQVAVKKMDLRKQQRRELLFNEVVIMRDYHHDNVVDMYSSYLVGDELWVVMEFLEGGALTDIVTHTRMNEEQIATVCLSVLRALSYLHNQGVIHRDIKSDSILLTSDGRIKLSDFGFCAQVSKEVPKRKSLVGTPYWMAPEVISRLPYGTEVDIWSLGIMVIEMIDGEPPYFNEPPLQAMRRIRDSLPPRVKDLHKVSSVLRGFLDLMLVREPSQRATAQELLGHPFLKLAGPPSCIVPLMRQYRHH

[14] = biological target: T10, Ros (Homo sapiens, UniProt P08922); conditions: read-out: % Inhibition (at 10mM)
T10 construct: gene ROS1

[15] = biological target: PEAK1 (Homo sapiens, UniProt Q9H792); conditions: read-out: % Inhibition (at 10mM)
[16] = biological target: T11, MRCK_alpha (Homo sapiens, UniProt Q5VT25); conditions: read-out: % Inhibition (at 10mM)
T11 construct: gene CDC42BPA
T11 sequence (Q5VT25 whole entry): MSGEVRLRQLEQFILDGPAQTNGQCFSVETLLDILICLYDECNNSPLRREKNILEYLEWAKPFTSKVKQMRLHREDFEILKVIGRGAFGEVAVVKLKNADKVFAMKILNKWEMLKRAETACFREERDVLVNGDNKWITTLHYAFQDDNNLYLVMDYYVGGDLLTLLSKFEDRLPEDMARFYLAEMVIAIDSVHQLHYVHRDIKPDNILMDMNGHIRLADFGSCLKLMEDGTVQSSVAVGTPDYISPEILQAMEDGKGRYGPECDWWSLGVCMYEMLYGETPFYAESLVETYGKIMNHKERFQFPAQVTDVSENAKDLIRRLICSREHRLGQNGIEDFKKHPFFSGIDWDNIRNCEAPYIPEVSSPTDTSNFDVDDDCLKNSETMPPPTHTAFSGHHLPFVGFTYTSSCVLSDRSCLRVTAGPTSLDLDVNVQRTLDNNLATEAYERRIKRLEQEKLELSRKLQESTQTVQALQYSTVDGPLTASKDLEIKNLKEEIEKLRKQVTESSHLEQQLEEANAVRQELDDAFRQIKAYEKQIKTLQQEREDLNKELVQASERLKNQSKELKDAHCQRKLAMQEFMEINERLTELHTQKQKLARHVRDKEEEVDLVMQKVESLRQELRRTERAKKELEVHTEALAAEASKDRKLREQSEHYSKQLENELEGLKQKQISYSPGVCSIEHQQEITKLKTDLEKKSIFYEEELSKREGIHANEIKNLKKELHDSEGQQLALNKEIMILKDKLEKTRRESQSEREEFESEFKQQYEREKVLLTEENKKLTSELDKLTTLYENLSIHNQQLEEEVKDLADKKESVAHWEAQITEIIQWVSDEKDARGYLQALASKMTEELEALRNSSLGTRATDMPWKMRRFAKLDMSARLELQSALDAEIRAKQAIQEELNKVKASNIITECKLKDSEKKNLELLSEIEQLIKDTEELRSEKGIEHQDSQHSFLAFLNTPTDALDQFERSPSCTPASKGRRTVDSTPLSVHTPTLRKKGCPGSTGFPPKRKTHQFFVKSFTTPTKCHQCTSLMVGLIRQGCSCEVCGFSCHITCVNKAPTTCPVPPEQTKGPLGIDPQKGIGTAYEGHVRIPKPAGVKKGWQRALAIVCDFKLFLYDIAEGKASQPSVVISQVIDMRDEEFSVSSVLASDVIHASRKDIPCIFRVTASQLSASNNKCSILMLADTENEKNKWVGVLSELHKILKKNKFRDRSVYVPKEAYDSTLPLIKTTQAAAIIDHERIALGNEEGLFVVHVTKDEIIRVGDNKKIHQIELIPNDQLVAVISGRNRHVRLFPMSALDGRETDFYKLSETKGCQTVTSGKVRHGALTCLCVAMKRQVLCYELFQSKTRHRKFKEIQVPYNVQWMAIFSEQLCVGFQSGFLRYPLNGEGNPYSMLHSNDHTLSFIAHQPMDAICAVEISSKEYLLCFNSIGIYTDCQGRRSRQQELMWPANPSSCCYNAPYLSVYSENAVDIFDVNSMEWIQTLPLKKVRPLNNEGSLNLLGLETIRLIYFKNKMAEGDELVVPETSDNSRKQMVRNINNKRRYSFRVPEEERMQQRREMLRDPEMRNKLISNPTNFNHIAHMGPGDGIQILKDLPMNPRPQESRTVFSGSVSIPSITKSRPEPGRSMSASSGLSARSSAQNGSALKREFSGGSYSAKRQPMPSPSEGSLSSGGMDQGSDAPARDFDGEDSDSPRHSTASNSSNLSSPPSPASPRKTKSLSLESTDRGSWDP

[17] = biological target: HIPK2 (Homo sapiens, UniProt Q9H2X6); conditions: read-out: % Inhibition (at 10mM)
Sequence of HIPK2 (Q9H2X6 whole entry): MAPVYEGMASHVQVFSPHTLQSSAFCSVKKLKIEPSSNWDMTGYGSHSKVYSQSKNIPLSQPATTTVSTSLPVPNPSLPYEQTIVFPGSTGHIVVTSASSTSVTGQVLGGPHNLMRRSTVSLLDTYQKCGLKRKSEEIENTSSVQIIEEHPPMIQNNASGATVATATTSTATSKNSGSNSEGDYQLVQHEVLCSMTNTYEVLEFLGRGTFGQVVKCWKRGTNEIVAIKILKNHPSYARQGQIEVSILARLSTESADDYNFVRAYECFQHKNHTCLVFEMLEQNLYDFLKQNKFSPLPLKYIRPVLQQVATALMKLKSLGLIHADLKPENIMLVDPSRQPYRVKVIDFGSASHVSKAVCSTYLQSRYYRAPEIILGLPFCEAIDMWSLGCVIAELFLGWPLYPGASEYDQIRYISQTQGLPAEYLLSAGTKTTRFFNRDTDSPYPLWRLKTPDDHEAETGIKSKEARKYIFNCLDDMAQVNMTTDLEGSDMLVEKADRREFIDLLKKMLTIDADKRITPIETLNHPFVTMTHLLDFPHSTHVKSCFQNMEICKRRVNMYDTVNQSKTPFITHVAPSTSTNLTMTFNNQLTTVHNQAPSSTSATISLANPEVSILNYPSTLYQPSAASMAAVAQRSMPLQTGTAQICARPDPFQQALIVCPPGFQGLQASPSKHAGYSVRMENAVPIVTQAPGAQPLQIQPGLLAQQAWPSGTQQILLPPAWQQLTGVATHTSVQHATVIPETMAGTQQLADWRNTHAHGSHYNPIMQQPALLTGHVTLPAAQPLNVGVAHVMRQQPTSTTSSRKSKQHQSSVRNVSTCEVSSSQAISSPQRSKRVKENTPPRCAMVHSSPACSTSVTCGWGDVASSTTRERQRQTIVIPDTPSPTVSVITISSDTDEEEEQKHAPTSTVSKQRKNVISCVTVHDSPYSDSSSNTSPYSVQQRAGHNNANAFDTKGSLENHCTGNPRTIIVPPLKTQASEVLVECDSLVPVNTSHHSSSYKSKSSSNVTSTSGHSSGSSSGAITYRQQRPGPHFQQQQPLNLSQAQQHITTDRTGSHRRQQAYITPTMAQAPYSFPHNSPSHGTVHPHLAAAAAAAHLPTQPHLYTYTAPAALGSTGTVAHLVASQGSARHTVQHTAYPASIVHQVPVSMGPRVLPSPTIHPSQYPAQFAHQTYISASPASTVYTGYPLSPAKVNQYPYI

[18] = biological target: MELK (Homo sapiens, UniProt Q14680); conditions: read-out: % Inhibition (at 10mM)
[19] = biological target: T12, MST1 (Homo sapiens, UniProt Q13043); conditions: read-out: % Inhibition (at 10mM)
T12 construct: gene STK4

[20] = biological target: CDK1/cyclinB (Homo sapiens, UniProt P06493); conditions: read-out: % Inhibition (at 10mM)
[21] = biological target: JAK2 (Homo sapiens, UniProt O60674); conditions: read-out: % Inhibition (at 10mM)
[22] = biological target: T13, PKG1_alpha (Homo sapiens, UniProt Q13976); conditions: read-out: % Inhibition (at 10mM)
T13 construct: gene PRKG1; isoform alpha

[23] = biological target: NEK1 (Homo sapiens, UniProt Q96PY6); conditions: read-out: % Inhibition (at 10mM)
Sequence of NEK1 (Q96PY6 whole entry): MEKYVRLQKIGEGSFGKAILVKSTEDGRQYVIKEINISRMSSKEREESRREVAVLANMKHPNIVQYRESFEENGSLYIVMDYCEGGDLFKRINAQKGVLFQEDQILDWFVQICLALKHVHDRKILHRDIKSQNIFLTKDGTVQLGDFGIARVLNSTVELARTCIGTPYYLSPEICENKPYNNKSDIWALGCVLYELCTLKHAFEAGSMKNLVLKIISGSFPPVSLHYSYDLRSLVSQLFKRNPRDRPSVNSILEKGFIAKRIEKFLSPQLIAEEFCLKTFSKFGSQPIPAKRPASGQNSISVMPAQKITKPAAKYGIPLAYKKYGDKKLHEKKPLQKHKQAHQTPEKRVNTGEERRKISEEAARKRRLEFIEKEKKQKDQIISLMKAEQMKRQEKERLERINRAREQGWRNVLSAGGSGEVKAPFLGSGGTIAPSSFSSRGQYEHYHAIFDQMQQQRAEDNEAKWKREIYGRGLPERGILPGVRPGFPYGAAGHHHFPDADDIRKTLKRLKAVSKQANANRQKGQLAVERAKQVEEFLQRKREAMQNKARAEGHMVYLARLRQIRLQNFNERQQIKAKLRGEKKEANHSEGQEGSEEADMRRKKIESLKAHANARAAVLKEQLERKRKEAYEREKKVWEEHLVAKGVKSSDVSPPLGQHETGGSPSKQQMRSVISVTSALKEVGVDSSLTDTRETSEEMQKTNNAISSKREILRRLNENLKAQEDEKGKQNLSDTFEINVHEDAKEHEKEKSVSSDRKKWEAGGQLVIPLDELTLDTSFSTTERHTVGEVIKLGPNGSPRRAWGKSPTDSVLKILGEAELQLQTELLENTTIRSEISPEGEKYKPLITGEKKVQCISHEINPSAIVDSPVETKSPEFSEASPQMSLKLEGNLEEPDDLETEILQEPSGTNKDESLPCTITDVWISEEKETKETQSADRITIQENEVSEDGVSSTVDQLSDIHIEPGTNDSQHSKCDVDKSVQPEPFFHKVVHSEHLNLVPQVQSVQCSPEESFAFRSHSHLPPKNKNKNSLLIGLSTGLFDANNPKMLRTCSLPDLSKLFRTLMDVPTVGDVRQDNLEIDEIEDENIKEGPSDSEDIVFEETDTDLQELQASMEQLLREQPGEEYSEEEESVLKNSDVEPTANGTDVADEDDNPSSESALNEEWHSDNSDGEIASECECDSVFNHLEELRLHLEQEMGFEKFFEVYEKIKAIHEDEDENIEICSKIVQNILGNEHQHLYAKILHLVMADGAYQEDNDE

[24] = biological target: T14, PKC_delta (Homo sapiens, UniProt Q05655); conditions: read-out: % Inhibition (at 10mM)
T14 construct: gene PRKCD

[25] = biological target: mTOR (Homo sapiens, UniProt P42345)
[26] = biological target: T15, Yes (Homo sapiens, UniProt P07947); conditions: read-out: % Inhibition (at 10mM)
T15 construct: gene YES1

[27] = biological target: T16, DMPK2 (Homo sapiens, UniProt Q6DT37); conditions: read-out: % Inhibition (at 10mM)
T16 construct: gene CDC42BPG

[28] = biological target: T17, IKK_beta (Homo sapiens, UniProt O14920); conditions: read-out: % Inhibition (at 10mM)
T17 construct: gene IKBKB

[29] = biological target: AKT3 (Homo sapiens, UniProt Q9Y243); conditions: read-out: % Inhibition (at 10mM)
[30] = biological target: T18, MSK2 (Homo sapiens, UniProt O75676); conditions: read-out: % Inhibition (at 10mM)
T18 construct: gene RPS6KA4

[31] = biological target: T19, TrkB (Homo sapiens, UniProt Q16620); conditions: read-out: % Inhibition (at 10mM)
T19 construct: gene NTRK2

[32] = biological target: Frk (Homo sapiens, UniProt P42685); conditions: read-out: % Inhibition (at 10mM)
[33] = biological target: T20, PRK1 (Homo sapiens, UniProt Q16512); conditions: read-out: % Inhibition (at 10mM)
T20 construct: gene PKN1

[34] = biological target: GRK4 (Homo sapiens, UniProt P32298); conditions: read-out: % Inhibition (at 10mM)
[35] = biological target: T21, CK2_alpha1 (Homo sapiens, UniProt P68400); conditions: read-out: % Inhibition (at 10mM)
T21 construct: gene CSNK2A1

[36] = biological target: T22, LynB (Homo sapiens, UniProt P07948); conditions: read-out: % Inhibition (at 10mM)
T22 construct: gene LYN; isoform B

[37] = biological target: Bmx (Homo sapiens, UniProt P51813); conditions: read-out: % Inhibition (at 10mM)

inhibition [1]: 8%
inhibition [2]: 5.5%
inhibition [3]: 2.5%
inhibition [4]: 6.5%
inhibition [5]: 39.5%
inhibition [6]: 12.5%
inhibition [7]: 9.5%
inhibition [8]: 10%
inhibition [9]: 5%
inhibition [10]: 5.5%
inhibition [11]: 7.5%
inhibition [12]: 9.5%
inhibition [13]: 5.5%
inhibition [14]: 7.5%
inhibition [15]: 11%
inhibition [16]: -3.5%
inhibition [17]: 6%
inhibition [18]: 5.5%
inhibition [19]: 2%
inhibition [20]: 0.5%
inhibition [21]: 2%
inhibition [22]: 0%
inhibition [23]: 1.5%
inhibition [24]: 15.5%
inhibition at 10 µM [25]: 9.5%
inhibition [26]: 83%
inhibition [27]: 2%
inhibition [28]: -0.5%
inhibition [29]: 5%
inhibition [30]: 9.5%
inhibition [31]: 4.5%
inhibition [32]: 4.5%
inhibition [33]: -7%
inhibition [34]: -11.5%
inhibition [35]: -2.5%
inhibition [36]: 37%
inhibition [37]: 13.5%
SMILES: CC(C)(O)CC(=O)NCCn1ccc2ncnc(Nc3ccc(Oc4cccc(C(F)(F)F)c4)c(Cl)c3)c21 [TAK-285]
